Among the data in BindingDB's records for PubMed 36473699 (Cnrs, 2022) are IC50 values, retold here.

The assay can be described thus: Inhibition of Mycobacterium smegmatis MC2 155 recombinant type II NADH dehydrogenase ndh expressed in Escherichia coli assessed as rate of NADH oxidation in the presence of an electron acceptor menadione.

SMILES strings stand for the structures. pIC50: −log10 of the molar value.

One may read the pIC50 as −log10 of the IC50, conventionally taken in molar units. Consider `COc1ccc(CN2CC[C@]34OC[C@H](C(C)C)N3C(=O)CC[C@@H]4C2)cc1`, for which the pIC50 is 6.05.

Take `CC(C)[C@H]1CO[C@]23CCN(Cc4ccc(Cl)cc4)C[C@H]2CCC(=O)N13`: the pIC50 was 7.38. Regarding `CC(C)[C@H]1CO[C@]23CCN(Cc4ccc(C(F)(F)F)nc4)C[C@H]2CCC(=O)N13`, the pIC50 was 7.06.
